Experimental data: the NIST ThermoML archive (doi:10.1021/acs.jced.9b00021)
Numbers after ± are expanded uncertainties.

Experiment: wn = mass fraction of the nth substance listed
Settings: 400 kPa, Liquid, Concentric cylinders viscometry

CN(CCO)CCO [N-methyldiethanolamine] + O
viscosity [mPa·s]
Settings | w1 = 0.3 | w1 = 0.4 | w1 = 0.5 | w1 = 0.6 | w1 = 0.7 | w1 = 0.8 | w1 = 0.9 | w1 = 0.95 | w1 = 1
298.15 K | 3.02 ± 0.48 | 5.21 ± 0.64 | 9.13 ± 1.2 | 16.91 ± 2.1 | 30.09 ± 3.7 | 53.42 ± 4.5 | 75.12 ± 3.3 | 76.07 ± 0.73 | 73.1 ± 0.58
303.15 K | 2.64 ± 0.41 | 4.41 ± 0.53 | 7.51 ± 0.92 | 13.4 ± 1.6 | 23.11 ± 2.7 | 40.03 ± 3.3 | 56.05 ± 2.7 | 57.55 ± 0.4 | 55.89 ± 0.39
308.15 K | 2.28 ± 0.35 | 3.71 ± 0.44 | 6.17 ± 0.73 | 10.73 ± 1.2 | 18.01 ± 2 | 30.42 ± 2.4 | 42.37 ± 2.1 | 44.18 ± 0.41 | 43.45 ± 0.35
313.15 K | 1.97 ± 0.31 | 3.15 ± 0.37 | 5.13 ± 0.59 | 8.68 ± 0.93 | 14.22 ± 1.5 | 23.47 ± 1.9 | 32.56 ± 1.6 | 34.3 ± 0.43 | 34.15 ± 0.3
318.15 K | 1.75 ± 0.28 | 2.73 ± 0.33 | 4.34 ± 0.49 | 7.15 ± 0.74 | 11.42 ± 1.1 | 18.44 ± 1.4 | 25.45 ± 1.3 | 27.04 ± 0.43 | 27.15 ± 0.27
323.15 K | 1.54 ± 0.26 | 2.36 ± 0.29 | 3.68 ± 0.41 | 5.92 ± 0.59 | 9.26 ± 0.9 | 14.67 ± 1.1 | 20.13 ± 1 | 21.55 ± 0.42 | 21.82 ± 0.24
328.15 K | 1.38 ± 0.24 | 2.07 ± 0.27 | 3.18 ± 0.35 | 4.99 ± 0.49 | 7.64 ± 0.71 | 11.84 ± 0.88 | 16.18 ± 0.82 | 17.38 ± 0.39 | 17.79 ± 0.23
333.15 K | 1.24 ± 0.23 | 1.83 ± 0.25 | 2.76 ± 0.31 | 4.23 ± 0.41 | 6.36 ± 0.58 | 9.67 ± 0.71 | 13.16 ± 0.67 | 14.14 ± 0.37 | 14.63 ± 0.22
338.15 K | 1.15 ± 0.22 | 1.65 ± 0.24 | 2.43 ± 0.28 | 3.66 ± 0.36 | 5.38 ± 0.48 | 8.02 ± 0.58 | 10.81 ± 0.55 | 11.64 ± 0.35 | 12.2 ± 0.21
343.15 K | 1.06 ± 0.22 | 1.49 ± 0.23 | 2.16 ± 0.26 | 3.18 ± 0.32 | 4.59 ± 0.41 | 6.71 ± 0.48 | 8.98 ± 0.46 | 9.66 ± 0.32 | 10.21 ± 0.21
348.15 K | 0.97 ± 0.21 | 1.35 ± 0.22 | 1.92 ± 0.25 | 2.77 ± 0.28 | 3.94 ± 0.35 | 5.66 ± 0.41 | 7.52 ± 0.4 | 8.09 ± 0.3 | 8.6 ± 0.21
353.15 K | 0.89 ± 0.21 | 1.22 ± 0.22 | 1.72 ± 0.23 | 2.43 ± 0.26 | 3.41 ± 0.31 | 4.81 ± 0.36 | 6.35 ± 0.35 | 6.82 ± 0.28 | 7.31 ± 0.21
358.15 K | 0.84 ± 0.21 | 1.13 ± 0.21 | 1.58 ± 0.23 | 2.18 ± 0.25 | 3 ± 0.28 | 4.16 ± 0.32 | 5.44 ± 0.31 | 5.83 ± 0.26 | 6.29 ± 0.2
363.15 K | 0.81 ± 0.21 | 1.05 ± 0.21 | 1.45 ± 0.22 | 1.97 ± 0.23 | 2.65 ± 0.26 | 3.63 ± 0.29 | 4.69 ± 0.28 | 5.01 ± 0.25 | 5.43 ± 0.2
368.15 K | 0.79 ± 0.2 | 0.97 ± 0.21 | 1.33 ± 0.22 | 1.77 ± 0.23 | 2.37 ± 0.25 | 3.18 ± 0.26 | 4.09 ± 0.26 | 4.33 ± 0.24 | 4.72 ± 0.2
373.15 K | 0.76 ± 0.2 | 0.91 ± 0.21 | 1.23 ± 0.21 | 1.61 ± 0.22 | 2.12 ± 0.23 | 2.82 ± 0.25 | 3.58 ± 0.24 | 3.77 ± 0.23 | 4.12 ± 0.2
